# Data: ChEMBL document CHEMBL1201862, “PubChem BioAssay data set” (2004)
# The source made the active and inactive calls.
# Tests used:
# [1] = target: Genome polyprotein (dengue virus type 2, UniProt P29990); assay: flavivirus cap methylation enzyme inhibition – biochemical, confirmation dose response, primary screen (AID 588689); type: functional
# [2] = target: T1, Polyadenylate-binding protein 1 (Homo sapiens, UniProt P11940); assay: MLLE domain peptide-binding blockers, IC50 – biochemical, fluorescence polarization, FITC-PAM2 peptide, dose response (AID 602259); type: functional; details: read-out: IC50_Mean
# T1 sequence (P11940 whole entry, the tested form may be a part): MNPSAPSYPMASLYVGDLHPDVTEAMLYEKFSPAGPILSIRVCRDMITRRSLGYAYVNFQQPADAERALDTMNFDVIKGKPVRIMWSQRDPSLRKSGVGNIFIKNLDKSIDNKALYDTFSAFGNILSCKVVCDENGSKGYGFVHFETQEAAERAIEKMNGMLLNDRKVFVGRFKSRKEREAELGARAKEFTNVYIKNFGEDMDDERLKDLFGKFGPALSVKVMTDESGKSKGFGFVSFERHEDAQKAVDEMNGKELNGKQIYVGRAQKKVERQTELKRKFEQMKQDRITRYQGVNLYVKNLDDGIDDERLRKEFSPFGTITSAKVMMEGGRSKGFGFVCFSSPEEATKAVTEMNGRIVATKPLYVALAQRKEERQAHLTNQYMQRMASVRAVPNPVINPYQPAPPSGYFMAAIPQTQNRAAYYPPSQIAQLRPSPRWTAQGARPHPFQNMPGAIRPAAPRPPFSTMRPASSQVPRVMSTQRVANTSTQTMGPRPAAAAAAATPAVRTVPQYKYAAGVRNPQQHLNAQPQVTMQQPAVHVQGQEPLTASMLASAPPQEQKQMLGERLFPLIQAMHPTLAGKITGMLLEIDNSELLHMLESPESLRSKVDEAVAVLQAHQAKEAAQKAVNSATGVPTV
# [3] = target: T1, Polyadenylate-binding protein 1; assay: MLLE binding blockers, Cy5 peptide tracer – biochemical, fluorescence polarization, Cy5-PAM2 peptide, secondary, miRNA deadenylation inhibitor project, dose response (AID 602260); type: functional; details: read-out: IC50_Mean
# [4] = luciferase reporter signal suppression in cells – H4 neuroglioma cells, luminescence, dose response (AID 1990); type: functional, cell-based
# [5] = Luminescence Cell-Based Dose Response HTS to Identify Inhibitors of 5'UTR Stem-Loop Driven Prion Protein mRNA Translation in H4 Neuroglioblastoma Cells. [Related pubchem assays: 1827 (Project Summary), 1813 (Primary HTS)]; type: functional
# [6] = alpha-synuclein stem-loop luciferase translation blockers – H4 neuroglioma cells, luminescence, confirmation (AID 1988); type: functional, cell-based
# [7] = target: Large T antigen (Simian virus 40, UniProt P03070); type: functional, Betapolyomavirus macacae;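 note: Confirmatory-stage PubChem screen for compounds that inhibit SV40 T antigen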
# Large T antigen, sequence (P03070 whole entry): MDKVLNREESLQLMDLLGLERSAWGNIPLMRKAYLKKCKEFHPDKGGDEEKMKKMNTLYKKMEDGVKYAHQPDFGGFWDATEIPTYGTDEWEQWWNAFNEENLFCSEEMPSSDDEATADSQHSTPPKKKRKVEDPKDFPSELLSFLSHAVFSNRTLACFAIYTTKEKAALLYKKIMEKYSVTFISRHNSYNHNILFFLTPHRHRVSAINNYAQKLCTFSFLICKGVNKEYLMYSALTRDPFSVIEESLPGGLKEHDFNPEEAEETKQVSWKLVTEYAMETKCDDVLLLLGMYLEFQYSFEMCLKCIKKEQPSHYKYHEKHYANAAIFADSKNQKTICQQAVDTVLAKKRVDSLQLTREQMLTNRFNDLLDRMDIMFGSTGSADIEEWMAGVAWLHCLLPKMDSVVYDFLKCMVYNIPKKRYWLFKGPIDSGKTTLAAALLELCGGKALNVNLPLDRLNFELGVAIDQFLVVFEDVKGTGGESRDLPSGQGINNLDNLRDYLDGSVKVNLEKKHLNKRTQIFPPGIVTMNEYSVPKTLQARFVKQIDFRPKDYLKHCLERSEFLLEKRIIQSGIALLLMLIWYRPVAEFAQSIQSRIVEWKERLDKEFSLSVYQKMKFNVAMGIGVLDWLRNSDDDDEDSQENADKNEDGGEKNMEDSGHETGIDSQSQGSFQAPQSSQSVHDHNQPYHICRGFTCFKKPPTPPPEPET
# [8] = target: T2, High affinity choline transporter 1 (Homo sapiens, UniProt Q9GZV3); assay: human choline transporter blockers, potency – cell-based, 5-point CRC, membrane potential dye, dose response (AID 504840); type: functional
# T2 sequence (Q9GZV3 whole entry): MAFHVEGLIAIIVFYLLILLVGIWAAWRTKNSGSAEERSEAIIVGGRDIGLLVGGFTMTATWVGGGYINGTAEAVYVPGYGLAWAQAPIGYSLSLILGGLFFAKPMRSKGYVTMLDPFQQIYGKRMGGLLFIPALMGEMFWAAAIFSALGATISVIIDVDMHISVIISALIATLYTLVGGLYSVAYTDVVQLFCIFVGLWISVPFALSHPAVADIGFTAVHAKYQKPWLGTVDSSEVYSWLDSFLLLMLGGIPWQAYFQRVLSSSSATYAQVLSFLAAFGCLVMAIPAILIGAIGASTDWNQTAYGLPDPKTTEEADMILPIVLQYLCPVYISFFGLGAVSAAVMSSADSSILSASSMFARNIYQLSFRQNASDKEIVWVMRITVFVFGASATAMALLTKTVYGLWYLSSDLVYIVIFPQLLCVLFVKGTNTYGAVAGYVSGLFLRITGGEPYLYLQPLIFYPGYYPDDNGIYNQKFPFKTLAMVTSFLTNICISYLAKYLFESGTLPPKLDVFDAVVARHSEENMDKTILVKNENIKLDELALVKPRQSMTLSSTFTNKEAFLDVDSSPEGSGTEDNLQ
# [9] = target: Nonstructural protein 1 (Influenza A virus, UniProt Q194T2); type: functional, Influenza A virus (A/California/07/2009(H1N1))
# Nonstructural protein 1, sequence (Q194T2 whole entry): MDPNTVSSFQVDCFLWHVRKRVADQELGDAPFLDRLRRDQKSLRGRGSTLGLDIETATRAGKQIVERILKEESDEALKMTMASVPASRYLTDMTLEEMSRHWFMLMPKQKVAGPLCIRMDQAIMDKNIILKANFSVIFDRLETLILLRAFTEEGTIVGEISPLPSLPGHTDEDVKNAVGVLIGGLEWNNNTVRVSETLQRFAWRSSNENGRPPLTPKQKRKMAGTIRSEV
# [10] = target: T3, Rac GTPase-activating protein 1 (Homo sapiens, UniProt Q9H0H5); assay: blockers of MgcRacGAP-driven Rac1 GTP hydrolysis – biochemical, ADP Hunter fluorescence, primary and confirmatory, confirmation (AID 624330); type: functional
# T3 sequence (Q9H0H5 whole entry): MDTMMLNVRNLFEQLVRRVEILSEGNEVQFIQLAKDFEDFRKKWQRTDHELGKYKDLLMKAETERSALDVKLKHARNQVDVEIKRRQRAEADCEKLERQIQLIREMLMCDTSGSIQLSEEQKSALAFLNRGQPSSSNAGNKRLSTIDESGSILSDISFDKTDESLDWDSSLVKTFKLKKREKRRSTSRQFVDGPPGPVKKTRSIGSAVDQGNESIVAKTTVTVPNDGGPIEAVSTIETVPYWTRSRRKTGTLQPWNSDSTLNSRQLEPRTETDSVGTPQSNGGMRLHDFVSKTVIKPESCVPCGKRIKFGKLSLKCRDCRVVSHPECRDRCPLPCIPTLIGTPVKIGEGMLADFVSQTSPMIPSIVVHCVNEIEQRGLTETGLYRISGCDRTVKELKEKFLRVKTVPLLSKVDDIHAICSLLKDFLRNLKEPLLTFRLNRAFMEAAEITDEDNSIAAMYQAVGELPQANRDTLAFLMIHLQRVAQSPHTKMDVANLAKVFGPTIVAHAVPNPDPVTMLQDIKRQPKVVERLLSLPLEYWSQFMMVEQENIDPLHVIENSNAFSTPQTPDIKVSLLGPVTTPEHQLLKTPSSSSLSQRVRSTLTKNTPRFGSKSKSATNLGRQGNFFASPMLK
# [11] = target: Luciferin 4-monooxygenase (Photinus pyralis, UniProt P08659); assay: inhibition of purified Photinus pyralis luciferase – biochemical, luminescence, dose response (AID 1891)
# Luciferin 4-monooxygenase, sequence (P08659 whole entry): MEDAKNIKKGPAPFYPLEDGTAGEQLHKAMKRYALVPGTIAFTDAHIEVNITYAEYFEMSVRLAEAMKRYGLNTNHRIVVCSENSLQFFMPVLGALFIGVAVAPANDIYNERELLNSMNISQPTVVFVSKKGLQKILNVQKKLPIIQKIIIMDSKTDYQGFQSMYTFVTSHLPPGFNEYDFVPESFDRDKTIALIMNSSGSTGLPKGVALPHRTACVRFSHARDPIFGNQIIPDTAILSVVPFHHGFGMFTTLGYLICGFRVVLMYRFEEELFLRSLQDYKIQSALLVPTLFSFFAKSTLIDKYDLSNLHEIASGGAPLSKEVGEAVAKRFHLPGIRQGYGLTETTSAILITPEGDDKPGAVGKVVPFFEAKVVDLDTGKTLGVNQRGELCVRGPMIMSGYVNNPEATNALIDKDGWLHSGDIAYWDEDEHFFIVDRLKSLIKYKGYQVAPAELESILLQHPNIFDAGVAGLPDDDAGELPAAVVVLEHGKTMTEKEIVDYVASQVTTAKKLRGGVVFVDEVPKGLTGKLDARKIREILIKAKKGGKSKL
# [12] = Luminescence Cell-Based Dose Confirmation HTS to Identify Inhibitors of Platelet Dense Granule Release. [Related pubchem assays: 1663 (Primary HTS), 1678 (Summary of Project)]; type: functional
# [13] = HIV-1 AD8 envelope cell-cell fusion blockers – cherry-pick, dose response (AID 652062); type: functional, cell-based;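 note: luciferase signal from cell-cell fusion driven by HIV-1 clade B AD8 Env; potency is for inhibitors of fusion seen as a drop in luminescence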
# [14] = blockers of HIV-1 envelope-mediated cell-cell fusion – cherry-pick, dose response (AID 652057); type: functional, cell-based
# [15] = blockers of HIV-1 ZM109 envelope-driven cell-cell fusion – HeLa effector, CEM target cells, luciferase, cherry-pick, dose response (AID 652058); type: functional, cell-based;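 note: luciferase signal from HIV-1 Env mediated cell-cell fusion of effector and target cells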
# [16] = P. falciparum Dd2 growth inhibitors, dose response, SYBR Green, cherry-picked samples (AID 1159567); type: functional, cell-based
# Genome polyprotein, sequence (P29990 2492-3391 limits assumed): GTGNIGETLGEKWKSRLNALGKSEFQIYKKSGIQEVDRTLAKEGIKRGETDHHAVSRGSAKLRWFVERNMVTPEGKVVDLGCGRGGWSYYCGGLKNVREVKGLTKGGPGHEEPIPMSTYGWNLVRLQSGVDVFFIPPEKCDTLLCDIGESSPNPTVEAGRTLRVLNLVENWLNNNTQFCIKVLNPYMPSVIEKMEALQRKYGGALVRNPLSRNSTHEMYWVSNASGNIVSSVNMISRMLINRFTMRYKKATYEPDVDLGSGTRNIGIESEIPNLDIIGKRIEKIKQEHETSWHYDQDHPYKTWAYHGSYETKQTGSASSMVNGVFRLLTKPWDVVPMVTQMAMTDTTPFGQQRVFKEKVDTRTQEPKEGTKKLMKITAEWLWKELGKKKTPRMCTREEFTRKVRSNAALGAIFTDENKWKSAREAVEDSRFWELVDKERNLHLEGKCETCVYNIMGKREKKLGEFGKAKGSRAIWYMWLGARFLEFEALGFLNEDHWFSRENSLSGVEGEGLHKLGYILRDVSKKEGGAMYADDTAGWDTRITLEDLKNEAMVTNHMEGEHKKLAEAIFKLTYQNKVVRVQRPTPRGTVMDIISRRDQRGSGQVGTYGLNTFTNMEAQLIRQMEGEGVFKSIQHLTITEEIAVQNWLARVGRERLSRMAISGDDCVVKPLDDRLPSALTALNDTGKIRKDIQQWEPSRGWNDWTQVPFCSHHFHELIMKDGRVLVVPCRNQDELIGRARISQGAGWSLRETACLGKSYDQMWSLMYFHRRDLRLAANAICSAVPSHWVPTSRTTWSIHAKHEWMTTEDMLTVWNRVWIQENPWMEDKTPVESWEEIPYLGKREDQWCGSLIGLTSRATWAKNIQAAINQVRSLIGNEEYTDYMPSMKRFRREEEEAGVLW
smiles,measurement,setting,value
CCn1nc([N+](=O)[O-])c(C(C#N)c2nc3ccccc3n2C)c(Cl)c1=O (stereo unspecified),IC50,[1],> 100 µM (active)
COc1c(S(=O)(=O)NCCCN2CCOCC2)ccc(Cl)c1Cl,IC50,[2],> 66 µM (inactive)
same,IC50,[3],> 66 µM (inactive)
Nc1nc2ncc(C(=O)c3cc(Cl)cc(Cl)c3O)cc2s1,IC50,[1],> 100 µM (active)
Cc1cc(C)c2cc(C#N)c(N3CCCN(C(S)=NCCCN(C)C)CC3)nc2c1,EC50,[4],> 60 µM (not active)
same,EC50,[5],> 120 µM (not active)
same,EC50,[6],9.29 µM (active)
O=C1NC(=O)C(=Cc2ccccc2OCCOc2ccc([N+](=O)[O-])cc2)C(=O)N1,IC50,[7],55.9 µM (active)
O=C(O)CN1C(=O)/C(=C\c2cc(Br)ccc2OCc2ccccc2F)SC1=S,IC50,[1],33.1 µM (active)
CC(C)c1ccccc1NC(=O)COC(=O)CCN1C(=O)/C(=C\C=C\c2ccccc2)SC1=S,EC50,[4],1.54 µM (active)
same,EC50,[5],27.8 µM (active)
same,EC50,[6],7.14 µM (active)
CCCc1cc(NCC2CCCO2)n2c(nc3ccccc32)c1C#N (stereo unspecified),IC50,[8],8.03 µM (active)
O=C(N/N=C/c1ccc(Cl)cc1)c1cc(-c2cccnc2)nc2ccccc12,EC50,[4],> 120 µM (not active)
same,EC50,[5],12.8 µM (active)
same,EC50,[6],9.23 µM (active)
COc1ccc(NC(=O)c2cc([N+](=O)[O-])ccc2NC(=O)CNCc2ccccn2)c(OC)c1,IC50,[9],4.45 µM (active)
O=C(Nc1ccccc1)c1cccc(S(=O)(=O)NC2CCCC2)c1,IC50,[8],13.2 µM (active)
COc1ccc(SC[C@H](C)CN2CC[C@H](C(C)(C)C)CCC2=O)cc1,IC50,[2],> 66 µM (inactive)
same,IC50,[3],> 66 µM (inactive)
CN(C)c1ccc(NC(=O)COC(=O)CCC(=O)c2ccc(F)cc2)cc1,IC50,[7],19.2 µM (active)
COc1cc(CNc2ccc3c(c2)OCCO3)ccc1OCC(N)=O,IC50,[7],40 µM (active)
COc1cc(OC)cc(C(=O)NCC(=O)N2CCN(c3ccc(O)cc3)CC2)c1,IC50,[7],65.2 µM (active)
Oc1ccc(/C=N/NC(=S)NCC2CCCO2)cc1 (stereo unspecified),IC50,[7],5.89 µM (active)
same,IC50,[10],30.8 µM (active)
CCc1ccc(C(=O)NC(=S)Nc2ccc(N3CCOCC3)cc2)cc1,IC50,[2],> 66 µM (inactive)
same,IC50,[3],> 66 µM (inactive)
Cc1c(C(=O)OC(C)C)sc(NC(=O)c2cccnc2)c1C#N,IC50,[8],1.82 µM (active)
COc1ccc(CCNC(=O)c2ccc3c(c2)SC2=NS(=O)(=O)CCN23)cc1,EC50,[11],> 112 µM (not active)
same,EC50,[12],> 112 µM (not active)
COc1ccc(S(=O)(=O)N(C)C[C@@H]2Oc3ccc(NC(=O)Cn4cnnn4)cc3CC(=O)N([C@H](C)CO)C[C@@H]2C)cc1,AC50,[13],3.68 µM (active)
same,AC50,[14],3.38 µM (active)
same,AC50,[15],2.33 µM (active)
CN(C)c1ccc2c(c1)[C@H]1C[C@H](CC(=O)NCc3ccc(Oc4ccccc4)cc3)O[C@H](CO)[C@H]1O2,AC50,[16],10.5 µM (active)
O=C1NC(=O)C(=Cc2coc3ccccc3c2=O)C(=O)N1,IC50,[8],15.1 µM (active)
same,IC50,[1],> 100 µM (active)
